Activity calls are given as the source filed them. The rule behind the calls is not given here.
Assays:
[1] = Induction of morphological transformation of rat ASK cells into astrocytes after 1 hr by light microscopy; type: functional; conditions: read-out: ED50 (the source's name)
[2] = tested on: ASK; test: Induction of morphological transformation of rat ASK cells into astrocytes at 100 ug/ml after 1 hr by light microscopy; type: functional, cell-based
[3] = Induction of morphological transformation of rat ASK cells into astrocytes at 0.004 uM after 1 hr by light microscopy; type: functional
[4] = Induction of morphological transformation of rat ASK cells into astrocytes at 0.02 uM after 1 hr by light microscopy; type: functional
[5] = Induction of morphological transformation of rat ASK cells into astrocytes at 0.10 uM after 1 hr by light microscopy; type: functional
[6] = Induction of morphological transformation of rat ASK cells into astrocytes at 0.5 uM after 1 hr by light microscopy; type: functional
[7] = Induction of morphological transformation of rat ASK cells into astrocytes at 2.5 uM after 1 hr by light microscopy; type: functional
[8] = Induction of morphological transformation of rat ASK cells into astrocytes at 6.2 uM after 1 hr by light microscopy in absence of fetal calf serum; type: functional
[9] = Induction of morphological transformation of rat ASK cells into astrocytes at 12.5 uM after 1 hr by light microscopy in absence of fetal calf serum; type: functional
[10] = Induction of morphological transformation of rat ASK cells into astrocytes at 25 uM after 1 hr by light microscopy in absence of fetal calf serum; type: functional
[11] = Induction of morphological transformation of rat ASK cells into astrocytes at 50 uM after 1 hr by light microscopy in absence of fetal calf serum; type: functional
[12] = Induction of morphological transformation of rat ASK cells into astrocytes at 100 uM after 1 hr by light microscopy in absence of fetal calf serum; type: functional
[13] = Induction of morphological transformation of rat ASK cells into astrocytes at 6.2 uM after 1 hr by light microscopy in presence of fetal calf serum; type: functional
[14] = Cytotoxicity against rat ASK cells at 150 uM; type: cell-based
[15] = Induction of morphological transformation of rat ASK cells into astrocytes at 12.5 uM after 1 hr by light microscopy in presence of fetal calf serum; type: functional
[16] = Induction of morphological transformation of rat ASK cells into astrocytes at 25 uM after 1 hr by light microscopy in presence of fetal calf serum; type: functional
[17] = Induction of morphological transformation of rat ASK cells into astrocytes at 50 uM after 1 hr by light microscopy in presence of fetal calf serum; type: functional
[18] = Induction of morphological transformation of rat ASK cells into astrocytes at 100 uM after 1 hr by light microscopy in presence of fetal calf serum; type: functional
[19] = Induction of morphological transformation of rat ASK cells into astrocytes at 150 uM after 1 hr by light microscopy in presence of fetal calf serum; type: functional
[20] = Induction of morphological transformation of rat ASK cells into astrocytes at 6.2 uM after 1 hr by light microscopy in presence of colchicine; type: functional
[21] = Induction of morphological transformation of rat ASK cells into astrocytes at 12.5 uM after 1 hr by light microscopy in presence of colchicine; type: functional
[22] = Induction of morphological transformation of rat ASK cells into astrocytes at 25 uM after 1 hr by light microscopy in presence of colchicine; type: functional
[23] = Induction of morphological transformation of rat ASK cells into astrocytes at 50 uM after 1 hr by light microscopy in presence of colchicine; type: functional
[24] = Induction of morphological transformation of rat ASK cells into astrocytes at 100 uM after 1 hr by light microscopy in presence of colchicine; type: functional
[25] = Induction of cAMP production in rat ASK cells assessed per 10^6 cells at 50 uM after 1 hr by radioimmunoassay; type: functional

Row | Compound | EC50 [1] [µM] | Activity [2] | also measured
1 | CC1=C(/C=C/C(C)=C/C=C/C(C)=C/C=C/C(=O)O)C(C)(C)CCC1 | > 25 | – | –
2 | COC(C)C1=C(/C=C/C(C)=C/C=C/C(C)=C/C(=O)O)C(C)(C)CC1 (configuration not stated) | < 10 | – | –
3 | CC(/C=C/C12OC1(C)CCCC2(C)C)=C\C=C\C(C)=C\C(=O)O (configuration not stated) | > 25 | – | –
4 | C=C[C@@]1(C)CC(=O)[C@@]23OS(=O)O[C@H]4CCC(C)(C)[C@H]([C@H](O)[C@H](OC(C)=O)[C@@]2(C)O1)[C@]43C (some centres not stated) | 3.12 | – | –
5 | C=C[C@@]1(C)CC(=O)[C@]2(O)[C@@]3(C)[C@@H](O)CCC(C)(C)[C@@H]3[C@H](O)[C@H](O)[C@@]2(C)O1 | 3.86 | – | –
6 | C=C[C@@]1(C)CC(O)[C@]2(O)[C@@]3(C)[C@@H](O)CCC(C)(C)[C@@H]3[C@H](O)[C@H](OC(C)=O)[C@@]2(C)O1 (some centres not stated) | 6.53 | – | –
7 | CC1=C(CC/C(C)=C/C=C/C(C)=C/C(=O)O)C(C)(C)CCC1 | < 10 | – | –
8 | CC(=O)C1=C(/C=C/C(C)=C/C=C/C(C)=C/C(=O)O)C(C)(C)CC1 | > 25 | – | –
9 | CC1=C(/C=C/C(C)C/C=C/C(C)=C/C(=O)O)C(C)(C)CCC1 (configuration not stated) | 10 | – | –
10 | C=C[C@@]1(C)CC(=O)[C@@H]2[C@@]3(C)CCCC(C)(C)[C@@H]3[C@H](O)[C@H](OC(C)=O)[C@@]2(C)O1 | > 100 | – | –
11 | CC(/C=C/C1C(C)CCCC1(C)C)=C\C=C\C(C)=C\C(=O)O (configuration not stated) | < 10 | – | –
12 | CC(C)=CCC[C@](C)(O)[C@H]1CC[C@]2(C)[C@@H]1[C@H](O)C[C@@H]1[C@@]3(C)CC[C@H](O)C(C)(C)[C@@H]3[C@@H](O[C@@H]3O[C@H](CO)[C@@H](O)[C@H](O)[C@H]3O[C@@H]3O[C@@H](C)[C@H](O)[C@@H](O)[C@H]3O)C[C@]12C | – | inactive | –
13 | CC(C)=CCC[C@](C)(O[C@@H]1O[C@H](CO)[C@@H](O)[C@H](O)[C@H]1O)[C@H]1CC[C@]2(C)[C@@H]1[C@H](O)C[C@@H]1[C@@]3(C)CC[C@H](O)C(C)(C)[C@@H]3[C@@H](O[C@@H]3O[C@H](CO)[C@@H](O)[C@H](O)[C@H]3O)C[C@]12C | – | inactive | –
14 | CC(C)=CCC[C@](C)(O[C@@H]1O[C@H](CO)[C@@H](O)[C@H](O)[C@H]1O)[C@H]1CC[C@]2(C)[C@@H]1[C@H](O)C[C@@H]1[C@@]3(C)CC[C@H](O)C(C)(C)[C@@H]3[C@@H](O[C@@H]3O[C@H](CO)[C@@H](O)[C@H](O)[C@H]3O[C@@H]3O[C@@H](C)[C@H](O)[C@@H](O)[C@H]3O)C[C@]12C | – | inactive | –
15 | CC(C)=CCC[C@](C)(O[C@@H]1O[C@H](CO)[C@@H](O)[C@H](O)[C@H]1O)[C@H]1CC[C@]2(C)[C@@H]1[C@H](O)C[C@@H]1[C@@]3(C)CC[C@H](O[C@@H]4O[C@H](CO)[C@@H](O)[C@H](O)[C@H]4O[C@@H]4O[C@H](CO)[C@@H](O)[C@H](O)[C@H]4O)C(C)(C)[C@@H]3CC[C@]12C | – | inactive | –
16 | CC(C)=CCC[C@](C)(O[C@@H]1O[C@H](CO[C@@H]2OC[C@@H](O)[C@H](O)[C@H]2O)[C@@H](O)[C@H](O)[C@H]1O)[C@H]1CC[C@]2(C)[C@@H]1[C@H](O)C[C@@H]1[C@@]3(C)CC[C@H](O[C@@H]4O[C@H](CO)[C@@H](O)[C@H](O)[C@H]4O[C@@H]4O[C@H](CO)[C@@H](O)[C@H](O)[C@H]4O)C(C)(C)[C@@H]3CC[C@]12C | – | inactive | –
17 | CC(C)=CCC[C@](C)(O[C@@H]1O[C@H](CO[C@@H]2OC[C@H](O)[C@H](O)[C@H]2O)[C@@H](O)[C@H](O)[C@H]1O)[C@H]1CC[C@]2(C)[C@@H]1[C@H](O)C[C@@H]1[C@@]3(C)CC[C@H](O[C@@H]4O[C@H](CO)[C@@H](O)[C@H](O)[C@H]4O[C@@H]4O[C@H](CO)[C@@H](O)[C@H](O)[C@H]4O)C(C)(C)[C@@H]3CC[C@]12C | – | inactive | –
18 | CC(C)=CCC[C@](C)(O[C@@H]1O[C@H](CO[C@@H]2O[C@@H](CO)[C@H](O)[C@H]2O)[C@@H](O)[C@H](O)[C@H]1O)[C@H]1CC[C@]2(C)[C@@H]1[C@H](O)C[C@@H]1[C@@]3(C)CC[C@H](O[C@@H]4O[C@H](CO)[C@@H](O)[C@H](O)[C@H]4O[C@@H]4O[C@H](CO)[C@@H](O)[C@H](O)[C@H]4O)C(C)(C)[C@@H]3CC[C@]12C | – | inactive | –
19 | CC(C)=CCC[C@](C)(O[C@@H]1O[C@H](CO[C@@H]2O[C@H](CO)[C@@H](O)[C@H](O)[C@H]2O)[C@@H](O)[C@H](O)[C@H]1O)[C@H]1CC[C@]2(C)[C@@H]1[C@H](O)C[C@@H]1[C@@]3(C)CC[C@H](O[C@@H]4O[C@H](CO)[C@@H](O)[C@H](O)[C@H]4O[C@@H]4O[C@H](CO)[C@@H](O)[C@H](O)[C@H]4O)C(C)(C)[C@@H]3CC[C@]12C | – | inactive | –
20 | CC1(C)CC[C@]2(C(=O)O[C@@H]3O[C@H](CO)[C@@H](O)[C@H](O)[C@H]3O)CC[C@]3(C)C(=CC[C@@H]4[C@@]5(C)CC[C@H](O[C@@H]6O[C@H](C(=O)O)[C@@H](O)[C@H](O)[C@H]6O[C@@H]6O[C@H](CO)[C@@H](O)[C@H](O)[C@H]6O)C(C)(C)[C@@H]5CC[C@]43C)[C@@H]2C1 | – | inactive | –
21 | C=C[C@@]1(C)CC(=O)[C@]2(O)[C@@]3(C)[C@@H](O)CCC(C)(C)[C@@H]3[C@H](O)[C@H](OC(C)=O)[C@@]2(C)O1 [COLFORSIN] | 0.07 | – | Activity [3]: 0%; Activity [4]: 15%; Activity [5]: 50%; Activity [6]: 100%; Activity [7]: 100%
22 | CCOC(=O)/C=C(C)/C=C/C=C(C)/C=C/c1c(C)cc(OC)c(C)c1C [ETRETINATE] | > 25 | – | –
23 | CC(=O)OC/C=C(C)/C=C/C=C(C)/C=C/C1=C(C)CCCC1(C)C [GILRETINOL ACETATE] | 10 | – | –
24 | CC1=C(/C=C/C(C)=C/C=C/C(C)=C\C(=O)O)C(C)(C)CCC1 [ISOTRETINOIN] | < 10 | – | –
25 | CCNC(=O)/C=C(C)/C=C/C=C(C)/C=C/c1c(C)cc(OC)c(C)c1C [MOTRETINIDE] | > 25 | – | –
26 | CC1=C(/C=C/C(C)=C/C=C/C(C)=C/C=O)C(C)(C)CCC1 [RETINAL] | < 10 | – | –
27 | COC(=O)/C=C(C)/C=C/C=C(C)/C=C/C1=C(C)CCCC1(C)C [RETINOIC ACID METHYL ESTER] | > 25 | – | –
28 | CC1=C(/C=C/C(C)=C/C=C/C(C)=C/CO)C(C)(C)CCC1 [RETINOL] | > 25 | – | –
29 | CC1=C(/C=C/C(C)=C/C=C/C(C)=C/C(=O)O)C(C)(C)CCC1 [TRETINOIN] | 10 | – | Activity [8]: 50%; Activity [9]: 70%; Activity [10]: 80%; Activity [11]: 95%; Activity [12]: 100%; Activity [13]: 0%; Activity [14]: Toxic; Activity [15]: 10%; Activity [16]: 20%; Activity [17]: 30%; Activity [18]: 40%; Activity [19]: 65%; Activity [20]: 0%; Activity [21]: 0%; Activity [22]: 15%; Activity [23]: 30%; Activity [24]: 50%; Activity [25]: 20 pmol
